# Assay results as given in PubChem BioAssay (NCI).
#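 Cells were grown in 96-well plates and exposed to each compound for 48 hours at five concentrations; endpoints were interpolated linearly between bracketing concentrations, or set to the highest concentration if not reached. TGI denotes the concentration required for complete inhibition of growth.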
# Assays:
# Assay in all cases: NCI anticancer screen, dose series, 48 h
# [1] = tested on: IGROV1 ovarian
# [2] = tested on: SK-OV-3 ovarian
# [3] = tested on: HOP-62 NSCLC
# [4] = tested on: COLO 205 colon
# [5] = tested on: A549 NSCLC
# [6] = tested on: SF-268 CNS
# [7] = tested on: CAKI-1 renal
# [8] = tested on: SF-295 CNS
# [9] = tested on: MALME-3M melanoma
# [10] = tested on: SW-620 colon
# [11] = tested on: NCI-H23 lung
# [12] = tested on: HL-60(TB) leukemia
# [13] = tested on: SK-MEL-2 melanoma
# [14] = tested on: 786-0 renal
# [15] = tested on: OVCAR-3 ovarian
# [16] = tested on: CCRF-CEM leukemia
# [17] = tested on: OVCAR-5 ovarian
# [18] = tested on: A498 renal
# [19] = tested on: NCI-H460 lung
# [20] = tested on: T-47D breast
# [21] = tested on: SN12C renal
# [22] = tested on: NCI/ADR-RES ovarian
# [23] = tested on: UO-31 renal
# [24] = tested on: PC-3 prostate
# [25] = tested on: DU-145 prostate
# [26] = tested on: MDA-MB-231 breast
# [27] = tested on: UACC-62 melanoma
# [28] = tested on: BT-549 breast
# [29] = tested on: NCI-H522 lung
# [30] = tested on: MDA-MB-435
# [31] = tested on: HT29 colon
# [32] = tested on: UACC-257 melanoma
# [33] = tested on: OVCAR-8 ovarian
# [34] = tested on: SK-MEL-5 melanoma
# [35] = tested on: MCF7 breast
# [36] = tested on: NCI-H226 lung
# [37] = tested on: LOX IMVI melanoma
# [38] = tested on: EKVX NSCLC
# [39] = tested on: ACHN renal
# [40] = tested on: MDA-N
# [41] = tested on: HS 578T breast
# [42] = tested on: HCC-2998 colon
# [43] = tested on: TK-10 renal
# [44] = tested on: RXF 393 renal
# [45] = tested on: M14 melanoma
# [46] = tested on: K-562 leukemia
# [47] = tested on: U251 CNS
# [48] = tested on: HCT-15 colon
# [49] = tested on: SR leukemia
# [50] = tested on: OVCAR-4 ovarian
# [51] = tested on: KM12 colon
# [52] = tested on: SNB-19 CNS
# [53] = tested on: HOP-92 NSCLC
# [54] = tested on: MOLT-4 leukemia
# [55] = tested on: RPMI-8226 leukemia
# [56] = tested on: HCT-116 colon
# [57] = tested on: SNB-75 CNS
# [58] = tested on: SK-MEL-28 melanoma
# [59] = tested on: SF-539 CNS
smiles,measurement,setting,value
O=C1C(c2c(O)[nH]c3ccccc23)=Nc2ccc(Br)cc21,TGI,[1],> 100 µM
same,TGI,[2],> 100 µM
same,TGI,[3],74.1 µM
same,TGI,[4],> 100 µM
same,TGI,[5],> 100 µM
same,TGI,[6],90.2 µM
same,TGI,[7],> 100 µM
same,TGI,[8],89.6 µM
same,TGI,[9],> 100 µM
same,TGI,[10],> 100 µM
same,TGI,[11],> 100 µM
same,TGI,[12],> 100 µM
same,TGI,[13],93.9 µM
same,TGI,[14],28.8 µM
same,TGI,[15],> 100 µM
same,TGI,[16],> 100 µM
same,TGI,[17],> 100 µM
same,TGI,[18],21 µM
same,TGI,[19],> 100 µM
same,TGI,[20],> 100 µM
same,TGI,[21],> 100 µM
same,TGI,[22],> 100 µM
same,TGI,[23],70.7 µM
same,TGI,[24],49.7 µM
same,TGI,[25],> 100 µM
same,TGI,[26],77 µM
same,TGI,[27],54 µM
same,TGI,[28],77.2 µM
same,TGI,[29],> 100 µM
same,TGI,[30],> 100 µM
same,TGI,[31],> 100 µM
same,TGI,[32],> 100 µM
same,TGI,[33],49.4 µM
same,TGI,[34],> 100 µM
same,TGI,[35],18.2 µM
same,TGI,[36],68.1 µM
same,TGI,[37],> 100 µM
same,TGI,[38],61.1 µM
same,TGI,[39],77 µM
same,TGI,[40],> 100 µM
same,TGI,[41],72.8 µM
same,TGI,[42],> 100 µM
same,TGI,[43],65.2 µM
same,TGI,[44],31 µM
same,TGI,[45],> 100 µM
same,TGI,[46],> 100 µM
same,TGI,[47],48 µM
same,TGI,[48],> 100 µM
same,TGI,[49],> 100 µM
same,TGI,[50],69.5 µM
same,TGI,[51],> 100 µM
same,TGI,[52],76.2 µM
same,TGI,[53],50.4 µM
same,TGI,[54],40.8 µM
same,TGI,[55],> 100 µM
same,TGI,[56],> 100 µM
same,TGI,[57],34.9 µM
same,TGI,[58],> 100 µM
O=C1/C(=C/c2ccc(Cl)cc2)N=C(c2ccccc2)N1c1nc2c(Cl)cc(Cl)cc2s1,TGI,[1],> 100 µM
same,TGI,[2],> 100 µM
same,TGI,[3],> 100 µM
same,TGI,[4],> 100 µM
same,TGI,[59],46.1 µM
same,TGI,[5],68.7 µM
same,TGI,[6],> 100 µM
same,TGI,[7],> 100 µM
same,TGI,[8],> 100 µM
same,TGI,[10],> 100 µM
same,TGI,[12],43.1 µM
same,TGI,[13],55.5 µM
same,TGI,[14],> 100 µM
same,TGI,[15],50.9 µM
same,TGI,[16],20.7 µM
same,TGI,[17],> 100 µM
same,TGI,[18],50.2 µM
same,TGI,[19],> 100 µM
same,TGI,[20],70.2 µM
same,TGI,[21],57.8 µM
same,TGI,[22],81.3 µM
same,TGI,[23],79.8 µM
same,TGI,[24],45.9 µM
same,TGI,[25],> 100 µM
same,TGI,[26],92.3 µM
same,TGI,[27],> 100 µM
same,TGI,[28],82.9 µM
same,TGI,[30],86.2 µM
same,TGI,[31],55.7 µM
same,TGI,[32],> 100 µM
same,TGI,[33],> 100 µM
same,TGI,[34],57.9 µM
same,TGI,[35],> 100 µM
same,TGI,[37],53.4 µM
same,TGI,[38],68.9 µM
same,TGI,[39],> 100 µM
same,TGI,[40],39.2 µM
same,TGI,[41],90.1 µM
same,TGI,[42],> 100 µM
same,TGI,[43],> 100 µM
same,TGI,[44],62 µM
same,TGI,[45],> 100 µM
same,TGI,[46],> 100 µM
same,TGI,[47],50.9 µM
same,TGI,[48],> 100 µM
same,TGI,[49],42.5 µM
same,TGI,[50],> 100 µM
same,TGI,[51],> 100 µM
same,TGI,[52],> 100 µM
same,TGI,[53],71.6 µM
same,TGI,[54],24.7 µM
same,TGI,[55],> 100 µM
same,TGI,[56],50.8 µM
same,TGI,[57],64.9 µM
same,TGI,[58],> 100 µM
